According to the supplement of paper PMC5908809:

Tests used:
[1] = system: NK-YS (IL-2 2.5 ng/mL); assay: percent inhibition of viability; higher = more inhibition; conditions: 72 h
[2] = system: SNK-6 (IL-2 2.5 ng/mL); assay: as above; conditions: 72 h
[3] = system: IMC-1 (IL-2 20 ng/mL); assay: as above; conditions: 72 h
[4] = system: DERL-7 (IL-2 2.5 ng/mL); assay: as above; conditions: 72 h
[5] = system: KHYG-1 (IL-2 2.5 ng/mL); assay: as above; conditions: 72 h
[6] = system: normal primary NK cells, pool 1 (3 donors) (IL-2 2.5 ng/mL); assay: as above; conditions: 72 h
[7] = system: KAI3 (IL-2 2.5 ng/mL); assay: as above; conditions: 72 h
[8] = system: normal primary NK cells, pool 1 (3 donors), resting (IL-2 0 ng/mL); assay: as above; conditions: 72 h
[9] = system: normal primary NK cells, pool 2 (3 donors) (IL-2 2.5 ng/mL); assay: as above; conditions: 72 h
[10] = system: NK-92 (IL-2 2.5 ng/mL); assay: as above; conditions: 72 h
[11] = system: NKL (IL-2 2.5 ng/mL); assay: as above; conditions: 72 h
[12] = system: YT (IL-2 2.5 ng/mL); assay: as above; conditions: 72 h
[13] = system: normal primary NK cells, pool 3 (3 donors) (IL-2 2.5 ng/mL); assay: as above; conditions: 72 h
[14] = system: normal NK cells expanded with K562-aAPC; assay: as above; conditions: 72 h, IL-2 2.5 ng/mL
Method: (§1)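 Drug sensitivity and resistance testing on K562-aAPC-expanded normal NK cells: 5 concentrations (10-fold steps over a 10,000-fold range), 72 h at 37 °C, viability by CellTiter-Glo normalised to DMSO and benzethonium chloride controls; DSS from the fitted curve.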

[15] = system: NK-YS (IL-2 2.5 ng/mL); assay: drug sensitivity score (DSS) (DSS units); higher = more sensitive; extreme values may be limits of the assay; conditions: 72 h
[16] = system: SNK-6 (IL-2 2.5 ng/mL); assay: as above; conditions: 72 h
[17] = system: IMC-1 (IL-2 20 ng/mL); assay: as above; conditions: 72 h
[18] = system: DERL-7 (IL-2 2.5 ng/mL); assay: as above; conditions: 72 h
[19] = system: KHYG-1 (IL-2 2.5 ng/mL); assay: as above; conditions: 72 h
[20] = system: normal primary NK cells, pool 1 (3 donors) (IL-2 2.5 ng/mL); assay: as above; conditions: 72 h
[21] = system: KAI3 (IL-2 2.5 ng/mL); assay: as above; conditions: 72 h
[22] = system: normal primary NK cells, pool 1 (3 donors), resting (IL-2 0 ng/mL); assay: as above; conditions: 72 h
[23] = system: normal primary NK cells, pool 2 (3 donors) (IL-2 2.5 ng/mL); assay: as above; conditions: 72 h
[24] = system: NK-92 (IL-2 2.5 ng/mL); assay: as above; conditions: 72 h
[25] = system: NKL (IL-2 2.5 ng/mL); assay: as above; conditions: 72 h
[26] = system: YT (IL-2 2.5 ng/mL); assay: as above; conditions: 72 h
[27] = system: normal primary NK cells, pool 3 (3 donors) (IL-2 2.5 ng/mL); assay: as above; conditions: 72 h
[28] = system: normal NK cells expanded with K562-aAPC; assay: as above; conditions: 72 h; IL-2 2.5 ng/mL
Method: as §1

COc1ccc(-c2nc(N3CCOCC3)c3sc(CN(C)c4ncc(C(=O)NO)cn4)cc3n2)cn1 [CUDC-907] (max concentration tested 10000 nM)
percent inhibition of viability [%]
Conditions | 1 nM | 10 nM | 100 nM | 1000 nM | 10000 nM
[1] | 6.56 | 55.9 | 101 | 103 | 99
[2] | 0.83 | 63.5 | 99.8 | 100 | 100
[3] | -4.89 | 34.3 | 100 | 101 | 100
[4] | 23.5 | 99.7 | 100 | 100 | 99.7
[5] | 16.1 | 94.5 | 103 | 103 | 98.7
[6] | 2.74 | 68.2 | 96.4 | 97.7 | 97.2
[7] | 52.6 | 75.5 | 102 | 104 | 98.9
[8] | 15.9 | 72.7 | 90.1 | 91 | 91.7
[9] | 1.42 | 74.2 | 94.2 | 94 | 94.8
[10] | 23.2 | 83.5 | 102 | 103 | 97
[11] | 56.5 | 77 | 103 | 104 | 99.2
[12] | 5.94 | 27.4 | 103 | 104 | 99.1
[13] | -5.77 | 56.8 | 97.2 | 96.7 | 98.1
[14] | 10.6 | 55.4 | 100 | 99.9 | 99.9

Conditions | drug sensitivity score
[15] | 37.1
[16] | 37.9
[17] | 35.3
[18] | 46.5
[19] | 44.4
[20] | 38
[21] | 43.4
[22] | 38.4
[23] | 37.7
[24] | 42.9
[25] | 43.8
[26] | 34.6
[27] | 36.7
[28] | 37.1

O=C(c1cc(Cc2n[nH]c(=O)c3ccccc23)ccc1F)N1CCN(C(=O)C2CC2)CC1 [Olaparib] (max concentration tested 10000 nM)
percent inhibition of viability [%]
Conditions | 1 nM | 10 nM | 100 nM | 1000 nM | 10000 nM
[1] | -6.43 | -6.57 | 3.49 | 20.7 | 90.7
[2] | 1.96 | -1.75 | -10.2 | 19.4 | 89.5
[3] | 2.29 | 1.77 | 7.69 | 13.7 | 53.5
[4] | -1.68 | 4.77 | -8.94 | 1.1 | 31.5
[5] | -5.18 | -5.25 | 0.38 | 10.5 | 72.6
[6] | 3.22 | 7.12 | -3.15 | 3.31 | 8.24
[7] | 0.33 | 3.77 | 9.9 | 28.6 | 72.2
[8] | -10.9 | 1.92 | -9.9 | -1.32 | 15.6
[9] | -7.93 | -9.67 | -11 | 2.31 | 15.4
[10] | 4.94 | 9.54 | 8.93 | 21.5 | 79.2
[11] | 0.33 | 9.8 | 27.9 | 57.2 | 80.5
[12] | 4.35 | 1.35 | 5.37 | 3.91 | 22.8
[13] | -7.91 | -1.82 | -4.22 | 3.8 | 13.5
[14] | 5.19 | 4.79 | 5.47 | 7.88 | 39.6

Conditions | drug sensitivity score
[15] | 8.28
[16] | 8.04
[17] | 4.75
[18] | 1.54
[19] | 5.78
[20] | 0
[21] | 7.15
[22] | 0.22
[23] | 0.48
[24] | 7.35
[25] | 14.5
[26] | 1.37
[27] | 0.4
[28] | 3.25
